Measurements taken from patent publication US20220242812A1, “SWELL1-LRRC8 COMPLEX MODULATORS” (Washington University, priority 2019, published 2022).

Legend:
hERG = hERG (Homo sapiens, UniProt Q12809); details: cited from earlier work
[1] = test system: insulin-AKT2-AS160 signaling (pAKT2, pAS160); assay: Insulin-stimulated AKT2-AS160 signaling western blot in 3T3-F442A cells
[2] = Tolerability of chronic daily i.p. injection; format: in vivo, mice; details: daily i.p. injections for up to 8 weeks
Protocol: (§1) All compounds were dissolved in Kolliphor® EL (Sigma, #C5135).

T2D KKAy mice = assay: Hyperinsulinemic euglycemic glucose clamp in T2D KKAy mice; format: in vivo
Protocol: Sterile silicone catheters (Dow-Corning) were placed into the jugular vein of mice under isoflurane anesthesia. Placed catheter was flushed with 200 U/ml heparin in saline and the free end of the catheter was directed subcutaneously via a blunted 14-gauge sterile needle and connected to a small tubing device that exited through the back of the animal. […] Hyperinsulinemic euglycemic clamps were performed on day 8 post-surgery on unrestrained, conscious mice as described elsewhere (Ayala et al., 2011; Kim et al., 2000), with some modifications. Mice were fasted for 6 h at which time insulin and glucose infusion were initiated (time 0). At 80 min prior to time 0 basal sampling was conducted, where whole-body glucose flux was traced by infusion of 0.05 μCi/min D-[3-3H]-glucose (Perkin Elmer), after a priming 5 μCi bolus for 1 minute. After the basal period, starting at time 0 D-[3-3H]-glucose was continuously infused at the 0.2 μCi/min rate and the infusion of insulin (Humulin, Eli Lilly) was initiated with a bolus of 80 mU/kg/min then followed by continuous infusion of insulin at the dose of 8 mU/kg/min throughout the assay. Fifty percent dextrose (Hospira) was infused at a variable rates (GIR) starting at the same time as the initiation of insulin infusion to maintain euglycemia at the targeted level of 150 mg/dl ([…]). Blood glucose (BG) measurements were taken every ten minutes via tail vein sampling using Contour glucometer (Bayer). After mouse reached stable BG and GIR (typically, after 75 minutes since starting the insulin infusion; for some mice, a longer time was required to achieve steady state) a single bolus of 12 μCi of [1-14C]-2-deoxy-D-glucose (Perkin Elmer) in 96 μl of saline was administered. Plasma samples (collected from centrifuged blood) for determination of tracers enrichment, glucose level and insulin concentration were obtained at times −80, −20, −10, 0, and every 10 min starting at 80 min post-insulin (5 min after [1-14C]-2-deoxy-D-glucose bolus was administered) until the conclusion of the assay at 140 min. Tissue samples were then collected from mice under isofluorane anesthesia from organs of interest (e.g., liver, heart, kidney, white adipose tissue, brown adipose tissue, gastrocnemius, soleus etc.) for determination of 1-14C1-2-deoxy-D-glucose tracer uptake. Plasma and tissue samples were processed as described previously (Ayala et al., 2011). Briefly, plasma samples were deproteinized with Ba(OH)2 and ZnSO4 and dried to eliminate tritiated water. The glucose turnover rate (mg/kg-min) was calculated as the rate of tracer infusion (dpm/min) divided by the corrected plasma glucose specific activity (dpm/mg) per kg body weight of the mouse. Fluctuations from steady state were accounted for by use of Steele's model. Plasma glucose was measured using Analox GMD9 system (Analox Technologies).
Tissue samples (˜30 mg each) were homogenized in 750 μl of 0.5% perchloric acid, neutralized with 10 M KOH and centrifuged. The supernatant was then used for first measuring the abundance of total [1-14C] signal (derived from both 1-14C-2-deoxy-D-glucose, 1-14C-2-deoxy-D-glucose 6 phosphate) and, following a precipitation step with 0.3 N […] and 0.3 N ZnSO4, for the measuring of non-phosphorylated 1-14C-2-deoxy-D-glucose. Glycogen was isolated by ethanol precipitation from 30% KOH tissue lysates, as described (Shiota, 2012). Insulin level in plasma at T0 and T140 were measured using a Stellux ELISA rodent insulin kit (Alpco).

insulin secretion = assay: Glucose-stimulated insulin secretion in plasma of HFD mice; format: in vivo; details: 21 weeks HFD
Protocol: (§2) Mice were fasted for 6 h prior to glucose tolerance tests (GTT). Baseline glucose levels at 0 min timepoint (fasting glucose, FG) were measured from blood sample collected from tail snipping using glucometer (Bayer Healthcare LLC). Either 1 g or 0.75 g D-Glucose/kg body weight were injected (i.p.) for lean or HFD mice, respectively and glucose levels were measured at 7, 15, 30, 60, 90 and 120 min timepoints after injection. For insulin tolerance tests (ITTs), the mice were fasted for 4 h. Similar to GTTs, the baseline blood glucose levels were measured at 0 min timepoint and 15, 30, 60, 90 and 120 min timepoints post-injection (i.p.) of insulin (HumulinR, 1 U/kg body weight for lean mice or 1.25 U/kg body weight for HFD mice). […] The collected plasma was then measured for insulin content by using Ultra-Sensitive Mouse Insulin ELISA Kit (Crystal Chem, #90080). All mice and treatment groups were assessed blindly while performing experiments.

VRAC/ICl,SWELL = VRAC/ICl,SWELL (Homo sapiens, UniProt Q8IWT6); details: selective VRAC/ICl,SWELL inhibitor; cited from earlier work
[3] = test system: delayed rectifier channels; details: cited from earlier work
human Kv = details: cited from earlier work
non-T2D mice = assay: Metabolic phenotyping in non-T2D mice (KKAa control strain, lean chow-fed); format: in vivo
Protocol: as §1, §2

[4] = test system: SWELL1, LRRC8b, LRRC8c, LRRC8d, LRRC8e mRNA; format: cell-based; details: 3T3-F442A preadipocytes, 10 μM 96 h
Protocol: Data are represented as mean±SEM. Two-tailed unpaired t-test was used where *, ** and *** represents p<0.05, p<0.01 and p<0.001 respectively.
The cDNA synthesis, qRT-PCR reaction and quantification were carried out as described previously (Zhang et al., 2017).

[5] = test system: cytochrome p450 isoenzyme; assay: Cytochrome P450 inhibition assay, overall statement; format: in vitro ADME, Human; details: in words
[6] = lean, non-T2D, glucose-tolerant mice, vs vehicle

CCCCC1(C2CCCC2)Cc2cc(OCCCC(=O)O)c(Cl)c(Cl)c2C1=O (stereo not drawn) [SN-401, 4-((2-butyl-6,7-dichloro-2-cyclopentyl-1-oxo-2,3-dihydro-1H-inden-5-yl)oxy)butanoic acid]
Effect on hERG (hERG): no effect
Insulin-pAKT2 signaling ([1]; 3T3-F442A adipocytes, 1 μM 96 hours followed by washout, vs vehicle): robustly increases
Effects on insulin-AKT2-AS160 signaling in SWELL1 KO cells ([1]; SWELL1 KO 3T3-F442A adipocytes): absent
Insulin-stimulated levels of pAS160 ([1]; WT 3T3-F442A adipocytes, 10 μM 96 h): enhanced
Insulin-stimulated levels of pAKT2 ([1]; WT 3T3-F442A, 10 μM 96 h): enhanced
Signs of toxicity [2]: no overt signs of toxicity
Glucose-infusion rate (GIR) to maintain euglycemia (T2D KKAy mice; T2D KKAy mice, 5 mg/kg i.p. 4 days, vs vehicle): higher
Reduction of hepatic glucose production (Ra) at baseline (T2D KKAy mice; T2D KKAy mice, Basal): 40%
Suppression of hepatic glucose production (Ra) during glucose/insulin infusion (T2D KKAy mice; T2D KKAy mice, Clamp): 75%
Glucose incorporation into glycogen (T2D KKAy mice; adipose): markedly increased
Insulin-stimulated 2-DG uptake (T2D KKAy mice; brown fat): not
Insulin-stimulated 2-DG uptake (T2D KKAy mice; gonadal white adipose tissue (gWAT)): enhanced
Insulin-stimulated 2-DG uptake (T2D KKAy mice; inguinal white adipose tissue (iWAT)): enhanced
Glucose incorporation into glycogen (T2D KKAy mice; liver): markedly increased
Insulin-stimulated 2-DG uptake (T2D KKAy mice; myocardium): enhanced
Glucose incorporation into glycogen (T2D KKAy mice; skeletal muscle): markedly increased
Insulin-stimulated 2-DG uptake (T2D KKAy mice; skeletal muscle): not
Glucose-stimulated insulin secretion (GSIS), serum insulin measurements (insulin secretion): significantly improved
IC50 (VRAC/ICl,SWELL): ~5 µM
Effect on delayed rectifier channels [3]: no effect
Effect on human Kv channels (human Kv): no effect
Hypoglycemia (non-T2D mice; control KKAa parental strain, 5 mg/kg x 4-10 days): does not cause hypoglycemia
FG (non-T2D mice; [6]): similar
GTT (non-T2D mice; [6]): similar
ITT (non-T2D mice; [6]): similar
SWELL1, LRRC8b, LRRC8c, LRRC8d or LRRC8e mRNA expression [4]: not associated with increases
Cytochrome p450 isoenzyme inhibition [5]: minimal
